Measurements published in patent US12528784B2, “Alkynyl-(heteroaryl)-carboxamide HCN1 inhibitors” (Hoffmann-La Roche Inc., priority 2019, dated 2026).

Columns and labels:
Assay type in all cases: cell-based
HCN2 = target: T1, HCN2 (Homo sapiens, UniProt Q9UL51); assay: HCN2 automated patch clamp current inhibition assay (Ionworks Barracuda); conditions: HEK-293 cells stably expressing HCN2; current inhibition during a hyperpolarizing pulse of -100 mV
T1 construct: expressed in transfected cells
T1 sequence (Q9UL51 1-889): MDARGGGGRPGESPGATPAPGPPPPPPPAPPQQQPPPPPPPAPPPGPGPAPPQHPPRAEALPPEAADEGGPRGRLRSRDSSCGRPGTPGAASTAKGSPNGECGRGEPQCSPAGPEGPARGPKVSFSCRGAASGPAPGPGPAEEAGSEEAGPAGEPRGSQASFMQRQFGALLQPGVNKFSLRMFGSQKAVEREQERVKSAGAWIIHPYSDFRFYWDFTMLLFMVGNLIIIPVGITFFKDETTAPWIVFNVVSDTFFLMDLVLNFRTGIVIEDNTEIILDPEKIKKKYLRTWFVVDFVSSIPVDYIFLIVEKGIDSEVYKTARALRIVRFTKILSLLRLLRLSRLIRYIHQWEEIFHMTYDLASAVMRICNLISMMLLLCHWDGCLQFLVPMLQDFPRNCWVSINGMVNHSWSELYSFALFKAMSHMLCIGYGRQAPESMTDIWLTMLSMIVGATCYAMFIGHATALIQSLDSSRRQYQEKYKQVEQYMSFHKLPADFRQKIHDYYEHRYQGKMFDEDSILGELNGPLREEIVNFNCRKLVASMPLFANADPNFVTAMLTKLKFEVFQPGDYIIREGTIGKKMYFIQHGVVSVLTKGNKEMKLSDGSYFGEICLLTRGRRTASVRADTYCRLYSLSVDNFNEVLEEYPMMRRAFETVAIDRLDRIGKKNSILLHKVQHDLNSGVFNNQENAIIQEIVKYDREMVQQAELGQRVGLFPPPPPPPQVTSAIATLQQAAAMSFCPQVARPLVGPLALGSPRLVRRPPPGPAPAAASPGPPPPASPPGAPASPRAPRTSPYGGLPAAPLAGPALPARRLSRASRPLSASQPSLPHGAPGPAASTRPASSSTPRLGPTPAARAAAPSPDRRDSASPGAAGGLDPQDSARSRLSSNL
Protocol: (§1) In vitro, high-throughput cellular electrophysiology was employed to detect voltage- and use-dependence of compounds in single concentration screening and IC50 determination for library and medicinal chemistry profiling compounds in 384 well plates.
(§2) Cell cultures were maintained in DMEM/F12 cell growth media containing FBS and appropriate antibiotics at 37° C., 5% CO2 for a maximum of 20 passages. At a time point of 40-72 hours prior to assay, the expression of HCN protein in the cells is induced by addition of tetracyclin. Cells may be incubated at 27° C. for 2-24 hours of induction. […] Cells were harvested at 80% confluency and resuspended in extracellular buffer and added to wells. A freshly prepared Escin solution was added to intracellular buffer and applied to establish whole cell recording via perforated patch clampling by APC.
(§3) Currents through activated channels were measured directly by APC by employing hyperpolarizing voltage steps. The activation window was increased and stabilized by the addition of cell permeable Br-cAMP. Baselines were established for both use- and voltage-dependence protocols using a −30 mV holding potential and multiple test pulses at −100 mV or by 20 mV steps from −120 to 0 mV, respectively. Test compounds were added after baseline recordings followed by a 10 min incubation, voltage-dependency protocol recording, and use-dependency recording. Data was corrected for baseline and rundown (well based) and normalized for % inhibition (plate based). Five previously reported HCN inhibitors of varying potencies and selectivities and zatebradine were used for run to run and plate to plate quality controls. […] Percent inhibition was analysed at −80, −100, −120 mV of the voltage-dependency protocol and at pulse 0 and 50 of the use-dependency protocols. Selectivity was assessed against HCN2, HCN3, and HCN4 overexpressing cell lines using similar methods. As HCN4 has a slower activation than the other HCN channels, activation was extended to achieve steady state activation.

HCN4 = target: T2, HCN4 (Homo sapiens, UniProt Q9Y3Q4); assay: HCN4 automated patch clamp current inhibition assay (Ionworks Barracuda); conditions: HEK-293 cells stably expressing HCN4; current inhibition during a hyperpolarizing pulse of -100 mV
T2 construct: expressed in transfected cells
T2 sequence (Q9Y3Q4 1-1203): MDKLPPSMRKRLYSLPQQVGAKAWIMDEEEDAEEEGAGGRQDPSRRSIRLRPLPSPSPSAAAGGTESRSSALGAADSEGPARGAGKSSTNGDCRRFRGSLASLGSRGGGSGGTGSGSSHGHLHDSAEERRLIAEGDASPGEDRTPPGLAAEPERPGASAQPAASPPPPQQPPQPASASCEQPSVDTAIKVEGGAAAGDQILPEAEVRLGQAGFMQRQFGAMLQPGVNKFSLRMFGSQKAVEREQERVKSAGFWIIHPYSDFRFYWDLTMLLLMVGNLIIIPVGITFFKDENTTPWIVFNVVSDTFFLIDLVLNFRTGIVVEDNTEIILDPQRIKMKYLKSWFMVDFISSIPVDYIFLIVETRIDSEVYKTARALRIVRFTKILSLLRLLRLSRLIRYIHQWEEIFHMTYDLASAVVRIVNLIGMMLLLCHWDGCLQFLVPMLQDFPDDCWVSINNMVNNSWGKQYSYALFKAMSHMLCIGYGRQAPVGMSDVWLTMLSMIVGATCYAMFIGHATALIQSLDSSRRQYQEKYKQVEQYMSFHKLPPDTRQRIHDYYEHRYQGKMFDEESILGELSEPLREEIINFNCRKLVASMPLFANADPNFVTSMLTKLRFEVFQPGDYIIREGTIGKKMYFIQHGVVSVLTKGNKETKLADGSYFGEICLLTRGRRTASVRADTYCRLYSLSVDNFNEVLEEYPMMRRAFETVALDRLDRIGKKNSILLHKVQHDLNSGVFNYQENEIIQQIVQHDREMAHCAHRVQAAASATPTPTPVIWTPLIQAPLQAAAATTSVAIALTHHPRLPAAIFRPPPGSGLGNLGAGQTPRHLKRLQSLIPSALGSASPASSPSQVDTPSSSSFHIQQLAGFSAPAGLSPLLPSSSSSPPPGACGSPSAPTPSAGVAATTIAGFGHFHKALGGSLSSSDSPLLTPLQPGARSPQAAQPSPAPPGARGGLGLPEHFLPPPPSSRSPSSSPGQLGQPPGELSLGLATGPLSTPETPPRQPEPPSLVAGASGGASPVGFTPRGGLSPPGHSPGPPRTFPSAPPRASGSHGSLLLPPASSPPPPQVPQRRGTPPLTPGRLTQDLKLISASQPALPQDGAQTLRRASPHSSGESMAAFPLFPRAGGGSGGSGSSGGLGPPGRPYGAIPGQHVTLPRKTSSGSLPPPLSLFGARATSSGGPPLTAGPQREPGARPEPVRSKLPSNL
Protocol: as §1, §2, §3

HCN1 = target: T3, HCN1 (Homo sapiens, UniProt O60741); assay: HCN1 automated patch clamp current inhibition assay (Ionworks Barracuda); conditions: HEK-293 cells stably expressing HCN1; current inhibition during a hyperpolarizing pulse of -100 mV
T3 construct: expressed in transfected cells
T3 sequence (O60741 1-890): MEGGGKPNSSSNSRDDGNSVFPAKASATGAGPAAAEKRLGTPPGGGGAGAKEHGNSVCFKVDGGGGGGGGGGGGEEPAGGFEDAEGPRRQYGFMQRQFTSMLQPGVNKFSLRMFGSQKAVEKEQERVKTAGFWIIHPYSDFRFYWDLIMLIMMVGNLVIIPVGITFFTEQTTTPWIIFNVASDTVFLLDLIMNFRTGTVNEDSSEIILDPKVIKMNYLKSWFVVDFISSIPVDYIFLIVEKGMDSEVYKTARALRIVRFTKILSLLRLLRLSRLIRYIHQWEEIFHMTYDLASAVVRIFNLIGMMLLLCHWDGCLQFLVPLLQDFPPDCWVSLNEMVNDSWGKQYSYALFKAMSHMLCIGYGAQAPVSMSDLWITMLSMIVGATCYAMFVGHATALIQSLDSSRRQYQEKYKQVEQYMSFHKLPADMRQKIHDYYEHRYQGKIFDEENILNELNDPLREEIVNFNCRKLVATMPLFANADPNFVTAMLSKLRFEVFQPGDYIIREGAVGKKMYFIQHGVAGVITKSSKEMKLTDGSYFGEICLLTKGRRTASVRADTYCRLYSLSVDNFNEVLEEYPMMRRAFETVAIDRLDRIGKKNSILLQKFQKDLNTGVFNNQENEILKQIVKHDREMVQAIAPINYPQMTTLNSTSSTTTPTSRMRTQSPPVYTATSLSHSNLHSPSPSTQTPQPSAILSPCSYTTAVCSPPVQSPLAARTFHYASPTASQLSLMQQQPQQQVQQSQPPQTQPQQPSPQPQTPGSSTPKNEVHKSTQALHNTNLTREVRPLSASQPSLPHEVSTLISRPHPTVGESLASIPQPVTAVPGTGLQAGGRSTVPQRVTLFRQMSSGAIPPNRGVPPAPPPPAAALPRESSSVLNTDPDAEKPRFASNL
Protocol: as §1, §2, §3

Row | IC50 (HCN2) | IC50 (HCN4) | IC50 (HCN1) | Structure (SMILES)
1 | > 40 µM | > 40 µM | 0.297 µM | Cc1ccc(-n2c(C(N)=O)nc(C#Cc3cc(Cl)ncc3F)c2C)cn1 [Example 7, 4-((2-Chloro-5-fluoropyridin-4-yl)ethynyl)-5-methyl-1-(6-methylpyridin-3-yl)-1H-imidazole-2-carboxamide]
2 | > 40 µM | > 40 µM | 0.518 µM | Cc1ccc(-n2c(C(N)=O)nc(C#Cc3ccc(Cl)cc3)c2C)cn1 [Example 9, 4-[2-(4-Chlorophenyl)ethynyl]-5-methyl-1-(6-methyl-3-pyridyl)imidazole-2-carboxamide]
3 | > 40 µM | > 40 µM | 0.833 µM | Cc1ccc(-n2c(C(N)=O)nc(C#Cc3ccnc(C(F)(F)F)c3)c2C)cn1 [Example 11, 5-Methyl-1-(6-methylpyridin-3-yl)-4-((2-(trifluoromethyl)pyridin-4-yl)ethynyl)-1H-imidazole-2-carboxamide]
4 | > 40 µM | > 40 µM | 1.01 µM | Cc1ccc(-n2c(C(N)=O)nc(C#Cc3ccnc(F)c3)c2C)cn1 [Example 12, 4-[2-(2-Fluoro-4-pyridyl)ethynyl]-5-methyl-1-(6-methyl-3-pyridyl)imidazole-2-carboxamide]
5 | > 40 µM | > 40 µM | 2.39 µM | Cc1ccc(-n2c(C(N)=O)nc(C#Cc3ccnc(Cl)n3)c2C)cn1 [Example 15, 4-((2-Chloropyrimidin-4-yl)ethynyl)-5-methyl-1-(6-methylpyridin-3-yl)-1H-imidazole-2-carboxamide]
6 | > 40 µM | > 40 µM | 2.4 µM | Cc1ccc(-n2c(C(N)=O)nc(C#Cc3ccncc3F)c2C)cn1 [Example 16, 4-((3-Fluoropyridin-4-yl)ethynyl)-5-methyl-1-(6-methylpyridin-3-yl)-1H-imidazole-2-carboxamide]
7 | > 40 µM | > 40 µM | 3.02 µM | Cc1ccc(-n2c(C(N)=O)nc(C#Cc3cncc(Cl)c3)c2C)cn1 [Example 17, 4-[2-(5-Chloro-3-pyridyl)ethynyl]-5-methyl-1-(6-methyl-3-pyridyl)imidazole-2-carboxamide]
8 | – | > 40 µM | 6.47 µM | Cc1ccc(-n2c(C(N)=O)nc(C#Cc3cc(Cl)ncn3)c2C)cn1 [Example 19, 4-((6-Chloropyrimidin-4-yl)ethynyl)-5-methyl-1-(6-methylpyridin-3-yl)-1H-imidazole-2-carboxamide]
9 | > 40 µM | > 40 µM | 8.59 µM | Cc1ccc(-n2c(C(N)=O)nc(C#Cc3cccnc3)c2C)cn1 [Example 20, 5-Methyl-1-(6-methyl-3-pyridyl)-4-[2-(3-pyridyl)ethynyl]imidazole-2-carboxamide]
10 | > 40 µM | > 40 µM | 6.03 µM | Cc1ccc(-n2c(C(N)=O)nc(C#Cc3ccnc(C)c3)c2C)cn1 [Example 22, 5-Methyl-1-(6-methylpyridin-3-yl)-4-((2-methylpyridin-4-yl)ethynyl)-1H-imidazole-2-carboxamide]
11 | > 40 µM | > 40 µM | 0.15 µM | Cc1ccc(-n2c(C(N)=O)nc(C#Cc3ccnc(Cl)c3C)c2C)nn1 [Example 24, 4-[2-(2-Chloro-3-methyl-4-pyridyl)ethynyl]-5-methyl-1-(6-methylpyridazin-3-yl)imidazole-2-carboxamide]
12 | – | > 40 µM | 0.087 µM | Cc1c(Cl)cccc1C#Cc1nc(C(N)=O)n(-c2cccnc2)c1C [Example 30, 4-[2-(3-Chloro-2-methyl-phenyl)ethynyl]-5-methyl-1-(3-pyridyl)imidazole-2-carboxamide]
13 | > 40 µM | > 40 µM | 3.16 µM | Cc1c(C#Cc2ccnc(Cl)c2)nc(C(N)=O)n1-c1cccc(Cl)c1 [Example 40, 1-(3-Chlorophenyl)-4-((2-chloropyridin-4-yl)ethynyl)-5-methyl-1H-imidazole-2-carboxamide]
